# Measurements as given in ChEMBL document CHEMBL2046380, “Synthesis and structure-activity relationship of disubstituted benzamides as a novel class of antimalarial agents” (Bioorg Med Chem Lett, 2012).
# Columns and labels:
# Raji = assay: Cytotoxicity against human Raji cells after 72 hrs by […] CellTiterGlo reagent assay; format: cell-based
# HepG2 = assay: Cytotoxicity against human HepG2 cells after 72 hrs by […] CellTiterGlo reagent assay; format: cell-based; details: HepG2, 72 h
# Plasmodium falciparum [1] = assay: Antimalarial activity against chloroquine-sensitive Plasmodium falciparum 3D7 incubated for 72 hrs by DNA staining based MAR3D7 growth inhibition assay; format: functional, organism-based; details: 3D7, 72 h
# HEK293 = assay: Cytotoxicity against human HEK293 cells after 72 hrs by […] CellTiterGlo reagent assay; format: cell-based; details: HEK293, 72 h
# BJ = assay: Cytotoxicity against human BJ cells after 72 hrs by […] CellTiterGlo reagent assay; format: cell-based
# Plasmodium falciparum [2] = assay: Antimalarial activity against […] incubated for 72 hrs by DNA staining based MARK1 growth inhibition assay; format: functional, organism-based
SMILES,EC50 (Raji),EC50 (HepG2),EC50 (Plasmodium falciparum [1]),EC50 (HEK293),EC50 (BJ),EC50 (Plasmodium falciparum [2])
CC(C)N(Cc1cccc(OCCCCCC(=O)O)c1)C(=O)c1ccc(-c2cccc(CC#N)c2)cc1,> 26 µM,> 26 µM,> 15 µM,> 26 µM,> 26 µM,> 15 µM
CC(C)N(Cc1cccc(OCCCCCC(=O)O)c1)C(=O)c1ccc(-c2cccc(Br)c2)cc1,> 26 µM,> 26 µM,> 15 µM,> 26 µM,> 26 µM,> 15 µM
CC(C)N(Cc1cccc(OCCCCCC(=O)O)c1)C(=O)c1ccc(-c2cccc(N(C)C)c2)cc1,> 26 µM,> 26 µM,> 15 µM,> 26 µM,> 26 µM,> 15 µM
CC(C)N(Cc1cccc(OCCCCCC(=O)O)c1)C(=O)c1ccc(-c2cccc([N+](=O)[O-])c2)cc1,> 26 µM,> 26 µM,< 0.0004 µM,> 26 µM,> 26 µM,> 15 µM
COc1cc(F)cc(-c2ccc(C(=O)N(Cc3cccc(OCCCCCC(=O)O)c3)C(C)C)cc2)c1,> 26 µM,> 26 µM,> 15 µM,> 26 µM,> 26 µM,> 15 µM
CCOC(=O)CCCCCOc1cccc(CN(C(=O)c2ccc(-c3ccco3)cc2)C(C)C)c1,> 26 µM,> 26 µM,> 15 µM,> 26 µM,> 26 µM,> 15 µM
CC(C)N(Cc1cccc(OCCCCCC(=O)O)c1)C(=O)c1ccc(-c2ccc(Cl)c(Cl)c2)cc1,> 26 µM,> 26 µM,> 15 µM,> 26 µM,> 26 µM,0.0175 µM
CC(C)N(Cc1cccc(OCCCCCC(=O)O)c1)C(=O)c1ccc(-c2c[nH]c3ccccc23)cc1,> 26 µM,> 26 µM,> 15 µM,> 26 µM,> 26 µM,> 15 µM
CCOC(=O)CCCCCOc1cccc(CN(C(=O)c2ccc(-c3cc(OC)ccc3F)cc2)C(C)C)c1,> 26 µM,> 26 µM,> 15 µM,> 26 µM,> 26 µM,> 15 µM
O=C(O)c1cc(-c2cccs2)nc2ccccc12,> 26 µM,> 26 µM,0.664 µM,> 26 µM,> 26 µM,0.822 µM
C=CCCC(=O)NCC1(c2ccc3c(c2)OCO3)OCCO1,> 13 µM,> 13 µM,> 7.51 µM,> 13 µM,> 13 µM,> 7.51 µM
CCOC(=O)CCCCCOc1cccc(CN(C(=O)c2ccc(-c3cccc(S(C)(=O)=O)c3)cc2)C(C)C)c1,> 26 µM,> 26 µM,> 15 µM,> 26 µM,> 26 µM,> 15 µM
CCOC(=O)CCCCCOc1cccc(CN(C(=O)c2ccc(-c3cccc(-c4ccccc4)c3)cc2)C(C)C)c1,> 26 µM,> 26 µM,> 15 µM,> 26 µM,> 26 µM,> 15 µM
CCOC(=O)CCCCCOc1cccc(CN(C(=O)c2ccc(-c3cc(C(F)(F)F)cc(C(F)(F)F)c3)cc2)C(C)C)c1,> 26 µM,> 26 µM,> 15 µM,> 26 µM,> 26 µM,> 15 µM
CCOC(=O)CCCCCOc1cccc(CN(C(=O)c2ccc(-c3ccc(C(C)=O)s3)cc2)C(C)C)c1,> 26 µM,> 26 µM,> 15 µM,> 26 µM,> 26 µM,> 15 µM
COc1cc(C)ccc1OCCOc1ccccc1F,> 26 µM,> 26 µM,> 15 µM,> 26 µM,> 26 µM,> 15 µM
CC(C)N(Cc1cccc(OCCCCCC(=O)O)c1)C(=O)c1ccc(-c2ccc3c(c2)OCO3)cc1,> 26 µM,> 26 µM,0.0604 µM,> 26 µM,> 26 µM,0.438 µM
CCOC(=O)CCCCCOc1cccc(CN(C(=O)c2ccc(-c3cccc(CC#N)c3)cc2)C(C)C)c1,> 26 µM,> 26 µM,> 15 µM,> 26 µM,> 26 µM,> 15 µM
COc1ccc(CCNC(=O)CCO[Si](C)(C)C(C)(C)C)cc1OC,6.9 µM,4.89 µM,> 2.58 µM,> 13 µM,> 13 µM,> 7.51 µM
CC(C)N(Cc1cccc(OCCCCCC(=O)O)c1)C(=O)c1ccc(-c2cccc(OC(F)(F)F)c2)cc1,> 26 µM,> 26 µM,> 15 µM,> 26 µM,> 26 µM,> 15 µM
CCOC(=O)CCCCCOc1cccc(CN(C(=O)c2ccc(-c3cccc(NC(C)=O)c3)cc2)C(C)C)c1,> 26 µM,> 26 µM,> 15 µM,> 26 µM,> 26 µM,> 15 µM
CCOC(=O)CCCCCOc1cccc(CN(C(=O)c2ccc(-c3cccc(OCC(C)C)c3)cc2)C(C)C)c1,> 26 µM,> 26 µM,> 15 µM,> 26 µM,> 26 µM,> 15 µM

SMILES,EC50 (Raji),EC50 (HepG2),EC50 (Plasmodium falciparum [1]),EC50 (HEK293),EC50 (BJ),EC50 (Plasmodium falciparum [2])
CCOC(=O)CCCCCOc1cccc(CN(C(=O)c2ccc(-c3cc(OC)cc(OC)c3)cc2)C(C)C)c1,> 26 µM,> 26 µM,> 15 µM,> 26 µM,> 26 µM,> 15 µM
CCOC(=O)CCCCCOc1cccc(CN(C(=O)c2ccc(-c3cccc(OC(C)C)c3)cc2)C(C)C)c1,> 26 µM,> 26 µM,> 15 µM,> 26 µM,> 26 µM,> 15 µM
O=C(Nc1ccc2c(c1)OCO2)c1cc(-c2cccs2)nc2ccccc12,> 26 µM,> 26 µM,> 15 µM,> 26 µM,> 26 µM,> 15 µM
CCOC(=O)CCCCCOc1cccc(CN(C(=O)c2ccc(-c3ccsc3)cc2)C(C)C)c1,> 26 µM,> 26 µM,> 15 µM,> 26 µM,> 26 µM,> 15 µM
CCOC(=O)CCCCCOc1ccc(C(O)O)cc1,> 27.2 µM,> 27.2 µM,> 15 µM,> 27.2 µM,> 27.2 µM,> 15 µM
CCCN(Cc1cccc(OCCCCCC(=O)OCC)c1)C(=O)c1ccc(-c2ccc3c(c2)OCO3)cc1,> 26 µM,> 26 µM,> 15 µM,> 26 µM,> 26 µM,> 15 µM
CCOC(=O)CCCCCOc1cccc(CN(C(=O)c2ccc(-c3cnc(OC)nc3OC)cc2)C(C)C)c1,> 26 µM,> 26 µM,> 15 µM,> 26 µM,> 26 µM,> 15 µM
CC(C)N(Cc1cccc(OCCCCCC(=O)O)c1)C(=O)c1ccc(-c2cccc(F)c2)cc1,> 26 µM,> 26 µM,> 15 µM,> 26 µM,> 26 µM,> 15 µM
CC(C)N(Cc1cccc(OCCCCCC(=O)O)c1)C(=O)c1ccc(-c2ccoc2)cc1,> 26 µM,> 26 µM,> 15 µM,> 26 µM,> 26 µM,> 15 µM
CCOC(=O)CCCCCOc1cccc(CN(C(=O)c2ccc(-c3ccc4[nH]ccc4c3)cc2)C(C)C)c1,> 26 µM,> 26 µM,> 15 µM,> 26 µM,> 26 µM,> 15 µM
CCCNCc1cccc(OCCCCCC(=O)OCC)c1,> 26 µM,> 26 µM,> 15 µM,> 26 µM,> 26 µM,> 15 µM
CC(=O)Nc1cccc(-c2ccc(C(=O)N(Cc3cccc(OCCCCCC(=O)O)c3)C(C)C)cc2)c1,> 26 µM,> 26 µM,> 15 µM,> 26 µM,> 26 µM,> 15 µM
C#CCCC(=O)NCCc1ccc(OC)c(OC)c1,> 13 µM,> 13 µM,> 7.51 µM,> 13 µM,> 13 µM,> 7.51 µM
CC(C)N(Cc1cccc(OCCCCCC(=O)O)c1)C(=O)c1ccc(-c2ccc3ccccc3c2)cc1,> 26 µM,> 26 µM,< 0.0004 µM,> 26 µM,> 26 µM,> 15 µM
COC(=O)c1cc(-c2cccs2)nc2ccccc12,> 26 µM,> 26 µM,> 15 µM,> 26 µM,> 26 µM,> 15 µM
CC(C)N(Cc1ccc(OCCCCCC(=O)O)cc1)C(=O)c1ccc(-c2ccc3c(c2)OCO3)cc1,> 26 µM,> 26 µM,> 15 µM,> 26 µM,> 26 µM,1.82 µM
CCOC(=O)CCCCCOc1cccc(CN(C(=O)c2ccc(-c3cccc(F)c3)cc2)C(C)C)c1,> 26 µM,> 26 µM,> 15 µM,> 26 µM,> 26 µM,> 15 µM
CCOC(=O)CCCCCOc1ccc(CO)cc1,> 27.2 µM,> 27.2 µM,> 15 µM,> 27.2 µM,> 27.2 µM,> 15 µM
CCOC(=O)CCCCCOc1cccc(C=O)c1,> 26 µM,> 26 µM,> 15 µM,> 26 µM,> 26 µM,> 15 µM
C=CCCC1=NCCc2cc(OC)c(OC)cc21,> 13 µM,> 13 µM,> 7.51 µM,> 13 µM,> 13 µM,> 7.51 µM
CCOC(=O)CCCCCOc1cccc(CN(C(=O)c2ccc(-c3cccc(OC(F)(F)F)c3)cc2)C(C)C)c1,> 26 µM,> 26 µM,> 15 µM,> 26 µM,> 26 µM,> 15 µM
